Measured values taken from patent US20240269139A1, “COMPOUNDS FOR TARGETED PROTEIN DEGRADATION OF KINASES” (DANA-FARBER CANCER INSTITUTE, INC., priority 2020, published 2024).
Where two headings read alike, the source gives them in different places.

Legend:
[1] = type: cell-based, H. sapiens; settings: MOLT-4, 1 μM, 5 h, 5 μM CB-5083
[2] = molecular target: protein kinases (human kinome) (Homo sapiens, UniProt Q16644); type: cell-based; settings: experiment wp168
[3] = molecular target: protein kinases (human kinome) (Homo sapiens, UniProt Q96S53); type: cell-based; settings: experiment wp147, 4 uM
protein kinases (human kinome) (Homo sapiens, UniProt Q96S53), sequence (Q96S53 whole entry): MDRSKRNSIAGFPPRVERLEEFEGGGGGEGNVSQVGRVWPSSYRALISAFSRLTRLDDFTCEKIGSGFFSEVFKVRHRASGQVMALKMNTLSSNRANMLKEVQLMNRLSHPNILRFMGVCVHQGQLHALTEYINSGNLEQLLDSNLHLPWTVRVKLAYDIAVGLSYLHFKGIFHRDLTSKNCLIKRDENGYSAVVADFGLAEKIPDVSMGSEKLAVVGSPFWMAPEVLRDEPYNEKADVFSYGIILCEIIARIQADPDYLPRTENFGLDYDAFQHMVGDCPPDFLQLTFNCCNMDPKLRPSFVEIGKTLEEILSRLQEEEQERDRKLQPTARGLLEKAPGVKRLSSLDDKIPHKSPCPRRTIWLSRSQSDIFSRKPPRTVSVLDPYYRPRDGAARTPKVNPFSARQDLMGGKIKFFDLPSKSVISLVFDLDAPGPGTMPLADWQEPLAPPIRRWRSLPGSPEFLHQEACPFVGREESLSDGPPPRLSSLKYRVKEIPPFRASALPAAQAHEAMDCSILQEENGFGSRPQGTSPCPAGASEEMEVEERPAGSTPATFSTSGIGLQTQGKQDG

[4] = molecular target: protein kinases (human kinome) (Homo sapiens, UniProt Q13882); type: cell-based; settings: for logFC PTK6 (Q13882): Experiment wp114, direction of change down; for logFC: PTK6 (Q13882), experiment wp114
protein kinases (human kinome) (Homo sapiens, UniProt Q13882), sequence (Q13882 whole entry): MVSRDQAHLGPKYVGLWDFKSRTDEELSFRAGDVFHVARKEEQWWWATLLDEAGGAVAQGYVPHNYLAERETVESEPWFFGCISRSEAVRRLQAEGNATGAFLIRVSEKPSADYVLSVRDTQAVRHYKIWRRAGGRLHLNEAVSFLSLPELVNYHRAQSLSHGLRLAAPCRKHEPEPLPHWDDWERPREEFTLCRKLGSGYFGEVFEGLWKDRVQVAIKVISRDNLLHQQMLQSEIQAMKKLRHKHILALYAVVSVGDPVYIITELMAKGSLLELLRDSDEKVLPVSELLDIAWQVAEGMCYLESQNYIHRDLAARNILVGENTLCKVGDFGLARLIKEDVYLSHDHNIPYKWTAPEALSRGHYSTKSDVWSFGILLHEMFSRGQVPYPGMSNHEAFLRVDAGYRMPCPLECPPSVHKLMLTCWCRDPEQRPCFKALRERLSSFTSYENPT

[5] = molecular target: protein kinases (human kinome) (Homo sapiens, UniProt Q9P1W9); type: cell-based; settings: experiment wp076; for logFC: PIM2 (Q9P1W9)
protein kinases (human kinome) (Homo sapiens, UniProt Q9P1W9), sequence (Q9P1W9 whole entry): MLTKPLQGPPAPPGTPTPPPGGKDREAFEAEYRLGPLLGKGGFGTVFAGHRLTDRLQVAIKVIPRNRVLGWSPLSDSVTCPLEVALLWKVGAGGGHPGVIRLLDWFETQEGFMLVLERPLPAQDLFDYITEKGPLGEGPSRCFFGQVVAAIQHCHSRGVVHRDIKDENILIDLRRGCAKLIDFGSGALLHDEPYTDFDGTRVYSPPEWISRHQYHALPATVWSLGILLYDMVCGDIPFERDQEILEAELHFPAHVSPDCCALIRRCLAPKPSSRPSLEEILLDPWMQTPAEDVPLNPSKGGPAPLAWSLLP

MOLT-4 cells = assay: RNA sequencing of kinase transcript levels; type: cell-based, H. sapiens; settings: MOLT-4, 1 μM
Protocol: With long treatment times (>8 h), it is difficult to distinguish direct degradation of targets from down-regulation caused by downstream or secondary effects.
MOLT-4 cells were seeded into 24 T25 flasks with 10 mL of culture at 10^6 cells/mL prior to compound treatment. […] Cells were harvested using CellStripper™ Dissociation reagent (Corning®), washed twice with PBS, and followed by snap freezing in liquid nitrogen. Total RNA was isolated from cell pellets using the RNeasy® Mini Kit (Qiagen®) following the manufacturer's directions. For quality control, RNA concentration and rRNA ratio (28S/18S) were measured using an Agilent 2100 Bioanalyzer. Samples were submitted to BGI Group for RNA-seq library preparation and Next Generation Sequencing using the BGISEQ-500 platform producing 50 base-pair single-end reads. Sequencing reads were aligned to the human genome (BSgenome.Hsapiens.UCSC.hg19 Bioconductor package, using splicedAlignment=FALSE) and quantified at the level of genes (TxDb.Hsapiens.UCSC.hg19.knownGene Bioconductor package) using the QuasR package with default parameters (Gaidatzis et al., Bioinformatics 31(7):1130-1132 (2015)). Expressed genes were identified using the edgeR Bioconductor package (Robinson et al., Bioinformatics 26(1):139-140 (2010)).

[6] = molecular target: protein kinases (human kinome) (Homo sapiens, UniProt Q9UK32); type: cell-based
protein kinases (human kinome) (Homo sapiens, UniProt Q9UK32), sequence (Q9UK32 whole entry): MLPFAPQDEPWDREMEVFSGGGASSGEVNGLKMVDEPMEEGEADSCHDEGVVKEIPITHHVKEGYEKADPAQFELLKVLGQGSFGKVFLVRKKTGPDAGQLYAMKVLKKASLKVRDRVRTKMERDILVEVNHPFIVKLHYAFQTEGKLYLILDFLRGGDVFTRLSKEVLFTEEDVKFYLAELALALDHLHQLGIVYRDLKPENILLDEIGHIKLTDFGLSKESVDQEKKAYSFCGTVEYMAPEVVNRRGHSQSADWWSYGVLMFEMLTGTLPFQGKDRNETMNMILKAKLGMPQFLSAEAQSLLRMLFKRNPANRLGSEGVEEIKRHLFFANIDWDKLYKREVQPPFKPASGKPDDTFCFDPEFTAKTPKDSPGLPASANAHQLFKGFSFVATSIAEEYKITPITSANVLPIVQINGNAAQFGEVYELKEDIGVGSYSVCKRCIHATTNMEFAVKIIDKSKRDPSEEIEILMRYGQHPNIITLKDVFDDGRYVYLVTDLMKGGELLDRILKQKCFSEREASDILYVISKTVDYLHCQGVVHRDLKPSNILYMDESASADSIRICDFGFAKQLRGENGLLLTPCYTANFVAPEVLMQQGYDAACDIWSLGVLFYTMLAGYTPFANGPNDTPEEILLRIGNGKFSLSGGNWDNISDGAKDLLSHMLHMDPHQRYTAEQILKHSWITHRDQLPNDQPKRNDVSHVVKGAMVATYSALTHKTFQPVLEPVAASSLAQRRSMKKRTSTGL

[7] = molecular target: T1, protein kinases (human kinome) (Homo sapiens, UniProt P51955); type: cell-based; settings: NEK2 (P51955)
T1 sequence (P51955 1-445): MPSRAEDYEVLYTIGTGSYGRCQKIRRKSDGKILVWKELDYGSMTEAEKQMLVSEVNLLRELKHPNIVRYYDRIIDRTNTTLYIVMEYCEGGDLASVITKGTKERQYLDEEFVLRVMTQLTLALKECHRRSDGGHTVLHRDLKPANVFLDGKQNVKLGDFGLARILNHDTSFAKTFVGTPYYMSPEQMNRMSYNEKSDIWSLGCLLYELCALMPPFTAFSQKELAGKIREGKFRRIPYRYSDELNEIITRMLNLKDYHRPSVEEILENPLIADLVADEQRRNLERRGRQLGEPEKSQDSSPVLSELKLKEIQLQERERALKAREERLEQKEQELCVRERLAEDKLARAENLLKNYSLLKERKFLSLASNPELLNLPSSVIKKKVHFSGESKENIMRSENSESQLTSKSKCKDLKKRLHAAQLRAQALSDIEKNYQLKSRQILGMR

[8] = molecular target: protein kinases (human kinome) (Homo sapiens, UniProt P41743); type: cell-based; settings: experiment wp056
protein kinases (human kinome) (Homo sapiens, UniProt P41743), sequence (P41743 whole entry): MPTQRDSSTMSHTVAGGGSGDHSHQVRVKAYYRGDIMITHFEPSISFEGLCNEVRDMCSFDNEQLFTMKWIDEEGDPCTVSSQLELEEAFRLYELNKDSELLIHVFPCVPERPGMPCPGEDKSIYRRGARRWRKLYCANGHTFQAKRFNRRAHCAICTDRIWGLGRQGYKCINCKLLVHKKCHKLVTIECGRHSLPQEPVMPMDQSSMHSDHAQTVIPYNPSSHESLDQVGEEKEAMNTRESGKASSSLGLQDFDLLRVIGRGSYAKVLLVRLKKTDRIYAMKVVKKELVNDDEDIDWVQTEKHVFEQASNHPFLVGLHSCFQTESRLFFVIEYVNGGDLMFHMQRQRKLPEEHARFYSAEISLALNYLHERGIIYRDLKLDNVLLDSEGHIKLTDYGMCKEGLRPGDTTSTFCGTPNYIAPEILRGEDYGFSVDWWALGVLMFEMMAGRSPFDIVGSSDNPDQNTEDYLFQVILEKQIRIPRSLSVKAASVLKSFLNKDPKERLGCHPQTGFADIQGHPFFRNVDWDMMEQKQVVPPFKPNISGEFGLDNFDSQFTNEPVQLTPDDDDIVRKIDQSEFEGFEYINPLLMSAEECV

[9] = molecular target: protein kinases (human kinome) (Homo sapiens, UniProt P52429); type: cell-based; settings: protein DGKE (P52429); experiment wp056; down
protein kinases (human kinome) (Homo sapiens, UniProt P52429), sequence (P52429 whole entry): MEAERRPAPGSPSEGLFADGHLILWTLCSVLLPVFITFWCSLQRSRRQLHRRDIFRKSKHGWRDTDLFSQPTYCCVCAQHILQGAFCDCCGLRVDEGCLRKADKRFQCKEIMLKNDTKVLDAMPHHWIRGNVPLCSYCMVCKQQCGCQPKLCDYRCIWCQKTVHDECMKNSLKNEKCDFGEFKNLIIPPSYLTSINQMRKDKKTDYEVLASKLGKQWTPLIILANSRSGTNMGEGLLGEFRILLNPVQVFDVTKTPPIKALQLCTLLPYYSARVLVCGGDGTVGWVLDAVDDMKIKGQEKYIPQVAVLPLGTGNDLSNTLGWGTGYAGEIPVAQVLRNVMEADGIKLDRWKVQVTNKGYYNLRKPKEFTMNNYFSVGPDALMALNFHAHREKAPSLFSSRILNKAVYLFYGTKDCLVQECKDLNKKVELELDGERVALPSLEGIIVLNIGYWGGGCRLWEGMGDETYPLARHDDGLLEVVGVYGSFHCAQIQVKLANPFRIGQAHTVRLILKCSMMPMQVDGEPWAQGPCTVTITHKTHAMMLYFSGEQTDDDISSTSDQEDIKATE

protein kinases (human kinome) (Homo sapiens, UniProt Q16644), sequence (Q16644 whole entry): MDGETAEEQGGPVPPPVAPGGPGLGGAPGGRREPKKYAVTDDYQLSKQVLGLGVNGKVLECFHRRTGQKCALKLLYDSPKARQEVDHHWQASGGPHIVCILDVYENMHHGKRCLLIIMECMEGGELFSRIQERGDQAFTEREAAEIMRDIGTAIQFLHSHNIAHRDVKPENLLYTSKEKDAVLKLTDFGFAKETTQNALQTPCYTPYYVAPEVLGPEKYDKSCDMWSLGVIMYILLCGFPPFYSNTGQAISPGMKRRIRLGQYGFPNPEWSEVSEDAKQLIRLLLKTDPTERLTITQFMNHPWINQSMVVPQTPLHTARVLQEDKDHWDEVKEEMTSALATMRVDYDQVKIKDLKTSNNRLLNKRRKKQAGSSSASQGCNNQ

## Cc1ccc(NC(=O)c2cccc(C(F)(F)F)c2)cc1N1Cc2cnc(Nc3ccc(N4CCN(Cc5cn(CCCCCOc6cccc7c6C(=O)N(C6CCC(=O)NC6=O)C7=O)nn5)CC4)nc3)nc2N(C)C1=O (stereo not drawn) [DB0646, N-(3-(7-((6-(4-((1-(5-((2-(2,6-Dioxopiperidin-3-yl)-1,3-dioxoisoindolin-4-yl)oxy)pentyl)-1H-1,2,3-triazol-4-yl)methyl)piperazin-1-v)pyridin-3-yl)amino)-1-methyl-2-oxo-1,4-dihydropyrimido[4,5-d]pyrimidin-3(2H)-yl)-4-methylphenyl)-3-(trifluoromethyl)benzamide]
[1]
  CSK degradation rescue on p97 inhibition: very little degradation rescue

## Cc1ccc(NC(=O)c2cccc(C(F)(F)F)c2)cc1N1Cc2cnc(Nc3ccc(N4CCN(CCCCC(=O)N[C@H](C(=O)N5C[C@H](O)C[C@H]5C(=O)N[C@@H](C)c5ccc(-c6scnc6C)cc5)C(C)(C)C)CC4)nc3)nc2N(C)C1=O [DB1113]
[2]; MAPKAPK3 (Q16644)
  logFC: −3.127
[2]; direction of change down
  logFC MAPKAPK3 (Q16644): −3.127

## CC(C)(C)c1nc(-c2cccc(NS(=O)(=O)c3c(F)cccc3F)c2F)c(-c2ccnc(NCCOCCNC(=O)CCOCCOCCNc3cccc4c3C(=O)N(C3CCC(=O)NC3=O)C4=O)n2)s1 (stereo not drawn) [DD.03.106]
[3]; direction of change down
  logFC TESK2 (Q96S53-1): −0.3831
[3]; protein TESK2 (Q96S53-1), down
  logFC TESK2: −0.3831

## Cc1ncsc1-c1ccc([C@H](C)NC(=O)[C@@H]2C[C@@H](O)CN2C(=O)[C@@H](NC(=O)CCOCCOCCN2CCN(c3ccc(Nc4ncc(Cl)c(Nc5ccccc5S(=O)(=O)C(C)C)n4)cc3)CC2)C(C)(C)C)cc1 [FMF.06.098.1]
[4]
  logFC PTK6 (Q13882): −0.4401
  logFC: −0.4401

## CCc1cnn2c(N(Cc3ccc(N)nc3)C(=O)CCOCCOCCOCCNC(=O)CNc3cccc4c3C(=O)N(C3CCC(=O)NC3=O)C4=O)cc(N3CCCC[C@H]3CCO)nc12 (stereo partly drawn) [MFH.5.115.2]
[5]
  logFC: −1.679
  logFC of PIM2 (Q9P1W9): −1.679

## O=C1CCC(N2C(=O)c3cccc(NCCCCCCCCN4CCC(NC(=O)c5[nH]ncc5NC(=O)c5c(Cl)cccc5Cl)CC4)c3C2=O)C(=O)N1 (stereo not drawn) [MFH.5.126.1]
[5]
  logFC: −3.019
  logFC of PIM2 (Q9P1W9): −3.019

## CC(C)S(=O)(=O)c1ccccc1Nc1nc(Nc2ccc(N3CCN(CCOCCNC(=O)CNc4cccc5c4C(=O)N(C4CCC(=O)NC4=O)C5=O)CC3)cc2)ncc1Cl (stereo not drawn) [SK-3-91]
MOLT-4 cells; 8- and 12-h time points
  transcript levels: complete transcriptional collapse
MOLT-4 cells; up until the 4-h time point
  transcript levels: largely unchanged

## CC(C)S(=O)(=O)c1ccccc1Nc1nc(Nc2ccc(N3CCN(CCOCCNC(=O)CNc4cccc5c4C(=O)N(C4CCC(=O)NC4=O)C5=O)CC3)cc2)ncc1Cl (stereo not drawn) [SK.3.91]
[6]; Experiment wp105, direction of change down
  logFC RPS6KA6 (Q9UK32): −0.83
[6]; protein RPSGKA6 (Q9UK32), experiment wp105, down
  logFC RPSGKA6: −0.83
[7]; experiment wp103
  logFC: −0.4564
[7]; experiment wp103, direction down
  logFC: −0.4564
[7]; experiment wp105
  logFC: −0.3908
[7]; experiment wp105, direction down
  logFC: −0.3908
[7]; experiment wp107
  logFC: −0.6368
[7]; experiment wp107, direction down
  logFC: −0.6368
[7]; experiment wp133, 1 hr
  logFC: −0.4397
[7]; experiment wp133, 1 hr, direction down
  logFC: −0.4397
[7]; experiment wp133, 2 hr
  logFC: −0.4411
[7]; experiment wp133, 2 hr, direction down
  logFC: −0.4411
[7]; experiment wp133, 4 hr
  logFC: −0.7303
[7]; experiment wp133, 4 hr, direction down
  logFC: −0.7303
[7]; experiment wp160, 4 hr
  logFC: −0.4294
[7]; experiment wp160, 4 hr, direction down
  logFC: −0.4294
[4]
  logFC PTK6 (Q13882): −0.4171
  logFC: −0.4171

## CC(C)S(=O)(=O)c1ccccc1Nc1nc(Nc2ccc(N3CCN(CCOCCOCCNC(=O)CNc4cccc5c4C(=O)N(C4CCC(=O)NC4=O)C5=O)CC3)cc2)ncc1Cl (stereo not drawn) [TL12.186]
[7]; experiment wp131
  logFC: −0.3783
[7]; experiment wp131, direction down
  logFC: −0.3783

## C=CCn1c(=O)c2cnc(Nc3ccc(N4CCN(CCCNc5cccc6c5C(=O)N(C5CCC(=O)NC5=O)C6=O)CC4)cc3)nc2n1-c1cccc(C(C)(C)O)n1 (stereo not drawn) [ZNL.02.096]
[8]; direction of change down
  logFC PRKCI (P41743): −0.5365
[8]; protein PRKCI (P41743), down
  logFC PRKCI: −0.5365
[9]
  logFC DGKE: −0.3512
